Assay results as given in US7238681B2, “2-Methylene-18,19-dinor-1α-hydroxy-homopregnacalciferol and its uses” (Wisconsin Alumni Research Foundation, priority 2004, dated 2007).
“Also recorded” adds a separate entry of the source.

Tests used:
Sprague-Dawley rats [1] = test: Intestinal calcium transport, everted gut sac method, in vitamin D-deficient rats; format: in vivo, rat
Protocol: (§1) Male, weanling Sprague-Dawley rats were placed on Diet 11 (0.47% Ca) diet+AEK for one week followed by Diet 11 (0.02% Ca)+AEK for 3 weeks. The rats were then switched to a diet containing 0.47% Ca for one week followed by two weeks on a diet containing 0.02% Ca. Dose administration began during the last week on 0.02% calcium diet. Four consecutive ip doses were given approximately 24 hours apart. Twenty-four hours after the last dose, blood was collected from the severed neck and the concentration of serum calcium determined as a measure of bone calcium mobilization. The first 10 cm of the intestine was also collected for intestinal calcium transport analysis using the everted gut sac method.

[2] = system: Human promyelocytic leukemia (HL60) cells; test: HL-60 differentiation (nitro blue tetrazolium reduction assay); format: cell-based; conditions: FIG. 2; for EC50: HL60 cells, four days
Protocol: The study drugs were dissolved in ethanol and the concentrations determined using UV spectrophotometry. Serial dilutions were prepared so that a range of drug concentrations could be tested without changing the final concentration of ethanol (≦0.2%) present in the cell cultures.
Human promyelocytic leukemia (HL60) cells were grown in RPMI-1640 medium containing 10% fetal bovine serum. The cells were incubated at 37° C. in the presence of 5% CO2.
HL60 cells were plated at 1.2×10^5 cells/ml. Eighteen hours after plating, cells in duplicate were treated with drug. Four days later, the cells were harvested and a nitro blue tetrazolium reduction assay was performed (Collins et al., 1979; J. Exp. Med. 149:969–974). The percentage of differentiated cells was determined by counting a total of 200 cells and recording the number that contained intracellular black-blue formazan deposits. Verification of differentiation to monocytic cells was determined by measuring phagocytic activity (data not shown).

[3] = system: 24-hydroxylase (24Ohase) gene promoter in ROS 17/2.8 (bone) cells; test: In vitro transcription assay (24-hydroxylase gene promoter, luciferase reporter); format: cell-based; conditions: FIG. 3; for EC50: ROS 17/2.8 cells, 16 hours after dosing, read-out: EC50, transcriptional activity in bone cells
Protocol: Transcription activity was measured in ROS 17/2.8 (bone) cells that were stably transfected with a 24-hydroxylase (24Ohase) gene promoter upstream of a luciferase reporter gene (Arbour et al., 1998). Cells were given a range of doses. Sixteen hours after dosing the cells were harvested and luciferase activities were measured using a luminometer. • RLU=relative luciferase units. Intestinal Calcium Transport and Bone Calcium Mobilization

Sprague-Dawley rats [4] = test: Bone calcium mobilization (serum calcium) in vitamin D-deficient rats; format: in vivo, rat; conditions: for bone calcium mobilization activity (serum calcium): vitamin D-deficient rats, low calcium diet (0.02%), four consecutive ip doses, FIG. 4
Protocol: as §1

[5] = target: T1, full-length recombinant rat vitamin D receptor (Rattus norvegicus, UniProt P13053); test: Vitamin D receptor binding, competition with [3H]-1,25(OH)2D3; conditions: FIG. 1
T1 construct: Full-length recombinant rat receptor was expressed in E. coli BL21 (DE3) Codon Plus RIL cells; histidine tag (C); made in house; host or cells: E. coli BL21 (DE3) Codon Plus RIL
T1 sequence (P13053 1-423): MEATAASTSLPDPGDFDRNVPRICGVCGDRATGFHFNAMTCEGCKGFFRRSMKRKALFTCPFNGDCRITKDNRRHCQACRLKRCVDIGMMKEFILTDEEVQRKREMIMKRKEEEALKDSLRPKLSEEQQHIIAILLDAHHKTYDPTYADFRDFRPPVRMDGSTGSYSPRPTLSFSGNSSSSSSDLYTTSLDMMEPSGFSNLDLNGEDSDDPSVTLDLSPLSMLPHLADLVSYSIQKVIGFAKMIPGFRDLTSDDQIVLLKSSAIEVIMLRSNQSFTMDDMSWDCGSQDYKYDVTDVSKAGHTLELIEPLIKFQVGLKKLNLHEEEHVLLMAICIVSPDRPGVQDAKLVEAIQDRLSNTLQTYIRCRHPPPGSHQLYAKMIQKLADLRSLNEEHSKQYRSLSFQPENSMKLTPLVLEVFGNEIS
Protocol: Full-length recombinant rat receptor was expressed in E. coli BL21 (DE3) Codon Plus RIL cells and purified to homogeneity using two different column chromatography systems. The first system was a nickel affinity resin that utilizes the C-terminal histidine tag on this protein. The protein that was eluted from this resin was further purified using ion exchange chromatography (S-Sepharose Fast Flow). Aliquots of the purified protein were quick frozen in liquid nitrogen and stored at −80° C. until use. For use in binding assays, the protein was diluted in TEDK50 (50 mM Tris, 1.5 mM EDTA, pH7.4, 5 mM DTT, 150 mM KCl) with 0.1% Chaps detergent. The receptor protein and ligand concentration were optimized such that no more than 20% of the added radiolabeled ligand was bound to the receptor.
Radiolabeled and unlabeled ligands were added to 100 mcl of the diluted protein at a final ethanol concentration of ≦10%, mixed and incubated overnight on ice to reach binding equilibrium. The following day, 100 mcl of hydroxylapatite slurry (50%) was added to each tube and mixed at 10-minute intervals for 30 minutes. The hydroxylapaptite was collected by centrifugation and then washed three times with Tris-EDTA buffer (50 mM Tris, 1.5 mM EDTA, pH 7.4) containing 0.5% Titron X-100. […] Total binding was determined from the tubes containing only radiolabeled ligand.

| EC50 ([2]; Homo sapiens, HL-60, 96 h) [nM] | Ki ([5]; full-length recombinant rat VDR) [nM] | binding to the receptor as compared to the standard 1,25-(OH)2D3 ([5]; relative to 1,25-(OH)2D3) | Molecule | intestinal calcium transport (Sprague-Dawley rats [1]; 2340 pmol/day) | EC50 [2] [nM] | EC50 [3] [nM] | bone calcium mobilization activity (serum calcium) (Sprague-Dawley rats [4]) | intestinal calcium transport (Sprague-Dawley rats [1]; 780 pmol/day) | potency on HL-60 cell differentiation compared with 1,25(OH)2D3 [2] | transcriptional activity relative to 1α,25-dihydroxyvitamin D3 in bone cells [3] | bone calcium mobilization (Sprague-Dawley rats [4]; 780 pmol/day for 4 consecutive days) | bone calcium mobilization (Sprague-Dawley rats [4]; 2340 pmol/day) | bone calcium mobilization (Sprague-Dawley rats [4]; 7020 pmol/day) | intestinal calcium transport (Sprague-Dawley rats [1]; 7020 pmol/day) | intestinal calcium transport activity (Sprague-Dawley rats [1]; vitamin D-deficient rats, low calcium diet (0.02%), four consecutive ip doses, FIG. 5) |
| --- | --- | --- | --- | --- | --- | --- | --- | --- | --- | --- | --- | --- | --- | --- | --- |
|  |  |  | 2-methylene-19-nor-1α-hydroxy-homopregnacalciferol [Compound 2MP, reference compound] | significant increase |  |  |  |  |  |  |  |  |  |  |  |
|  |  |  | C=C1/C(=C\C=C2/CCC[C@]3(C)[C@@H]([C@H](C)CCCC(C)(C)O)CC[C@@H]23)C[C@@H](O)C[C@@H]1O [1,25(OH)2D3, 1α,25-dihydroxyvitamin D3, reference compound] |  | 3.2 | 3.2 | increased serum calcium levels at all dosages | significant increase |  |  |  |  |  |  |  |
| 15 | 0.22 | one-fifth as well | C=C1[C@H](O)CC(=C/C=C2\CCC[C@@H]3[C@@H](C(C)C)CC[C@@H]23)C[C@H]1O [18,19-dinor-2MP, 2-methylene-18,19-dinor-1α-hydroxy-homopregnacalciferol] | does not promote intestinal calcium transport |  | 15 | no measurable bone calcium mobilization activity; also recorded: little, if any, activity in mobilizing calcium from bone | does not promote intestinal calcium transport | almost as potent as 1,25(OH)2D3 | one-tenth | did not result in mobilization of bone calcium | without any substantial effect | without any substantial effect | does not promote intestinal calcium transport | no measurable activity; also recorded: essentially devoid of intestinal calcium transport activity |
